Key:
[1] = test system: human sebaceous glands (hSGs); experiment: Sebum (normalized total lipids) of ex-vivo cultured human sebaceous glands; assay type: cell-based; details: 5 μM
Procedure: Using micro-scissors and tweezers, hSGs were isolated from the pilosebaceous units of a scalp skin sample. They were seeded in 24-well plates at a density of 8 hSGs/well and then cultivated in 500 μl of modified William E medium. After 24 hours of culture, the viability of the hSGs was assessed by means of resazurine assay. […] The control received modified William E medium, while the samples submitted to experimental treatments received the same medium supplemented with the extracts. The culture medium was renewed every other day.

IL-1α = IL-1α release by ex-vivo skin stimulated with 2% SDS (ELISA); assay type: cell-based, human; details: 2% SDS stimulus, lenitive treatment 10 μM; Table 7
Procedure: In order to study the biological activity of the ethanol extract (EtOH) from Nannochloropsis sp. on the inflammatory response of skin to irritation, the experimental protocol hereinafter summarized was adopted: • i. ex-vivo skin samples (7 mm in diameter) were cultivated for 24 hours in 6-well plates (4 skin samples/well) with 2.5 ml/well of modified Williams E medium. The experimental design included the following experimental groups, each comprising 8 skin samples cultivated in 2 wells: • 1. control samples cultivated without receive any stimulus or treatment; • 2. samples stimulated with 2% SDS without subsequent lenitive treatment (negative control); • 3. samples stimulated with 2% SDS and then treated with dexamethasone at 10 μM (positive control). • 4. 2 groups of samples stimulated with 2% SDS and then treated with EtOH extract at 1 and 10 μg/ml respectively; • ii. After 24 hours of culture the culture medium was renewed and the experimental groups 2 to 4 received the irritant stimulus (2% SDS) through topical application of 4 μl of preparation for each skin sample. After 3 hours the stimulus was removed by mean of cotton buds and 4 μl of lenitive treatment was then administered topically to groups 3 to 4. Stimulus treatments were applied in 50% DMSO, while the lenitive treatments were in pure DMSO. • iii.

[2] = test system: ex-vivo cultured human skin; experiment: Melanogenesis in ex-vivo human skin culture (melanin content, Fontana-Masson staining); assay type: cell-based
Procedure: The adopted culture medium was a modified William-E, and it was renewed at day three of the tissue culture. […] On a daily basis, 4 μl of these extract preparations were applied topically to the cultured skin samples, while the control group received the same quantity of the pure DMSO. After six days of organ culture, histological sections were prepared from the skin samples, and quantitative changes of melanin content were investigated by adopting the Fontana-Masson staining technique. The variation in melanin content was estimated by image analysis of the microphotographs of histological sections of skin.

COc1cc(CNC(=O)CCCC/C=C/C(C)C)ccc1O [Capsaicin]
Sebum in hSGs as % ratio of the control group value ([1]; another donor (Table 11)): 66.5% | Sebum in hSGs as % ratio of the control group value ([1]; another donor (Table 12)): 91.9% | Sebum in hSGs as % ratio of the control group value ([1]; another donor (Table 13)): 45.6%

C[C@@H]1C[C@H]2[C@@H]3CCC4=CC(=O)C=C[C@]4(C)[C@@]3(F)[C@@H](O)C[C@]2(C)[C@@]1(O)C(=O)CO [Dexam., dexamethasone]
IL-1α (IL-1α): 48.6 pg/mL | IL-1α release [%], SDS group as reference (100%) (IL-1α): 92.2%

O=c1cc(CO)occ1O [KA, Kojic acid]
Melanin content as % ratio of the control group performance ([2]; 0.1%, Table 6): 83.2%

CC1=C(/C=C/C(C)=C/C=C/C(C)=C/C(=O)O)C(C)(C)CCC1 [Retinoic ac., Retinoic acid]
Melanin content as % ratio of the control group performance ([2]; 10 μM, third donor (Table 5)): 82.4% | Melanin content as % ratio of the control group performance ([2]; 100 μM, third donor (Table 5)): 88.3%
